# Measurements from US8841004B2, “Binaphthyl compound and organic light emitting element using the same” (Canon Kabushiki Kaisha, priority 2007, dated 2014).
# Experiment: Solubility in chlorobenzene heated at 130° C.
# Assay type: physicochemical
# Description: Solubility of Example Compound A-02 in chlorobenzene heated at 130° C. was examined.
# Comparative Compound H-2 (Comparative Example 2), Comparative Compound H-3 (Comparative Example 3) and Comparative Compound H-5 (Comparative Example 5) were respectively synthesized and solubility in chlorobenzene was examined in the same manner as in Example 1-(C). The results are shown in Table 3 along with those of Examples 1 to 3.
row,Compound,"Solubility (chlorobenzene, 130° C.)"
1,CC1(C)c2ccccc2-c2ccc(-c3ccc4cc(-c5ccc6cc(-c7ccc8cc(-c9ccc%10c(c9)C(C)(C)c9ccccc9-%10)ccc8c7)ccc6c5)ccc4c3)cc21 [Comparative Compound H-3],less than 0.6 g/L
2,CC1(C)c2ccccc2-c2ccc(-c3ccc4c(c3)C(C)(C)c3cc(-c5ccc6cc(-c7ccc8ccccc8c7)ccc6c5)ccc3-4)cc21 [Example Compound A-02],16000 µg/mL
3,CC1(C)c2ccccc2-c2ccc(-c3ccc4cc(-c5ccc6cc(-c7ccc8c(c7)C(C)(C)c7ccccc7-8)ccc6c5)ccc4c3)cc21 [Comparative Compound H-2],3300 µg/mL
4,CC1(C)c2cc(-c3ccc4c(c3)C(C)(C)c3cc(-c5ccc6ccccc6c5)ccc3-4)ccc2-c2ccc(-c3ccc4c(c3)C(C)(C)c3cc(-c5ccc6ccccc6c5)ccc3-4)cc21 [Comparative Compound H-5],3500 µg/mL
5,CC1(C)c2ccccc2-c2ccc(-c3ccc4c(c3)C(C)(C)c3cc(-c5ccc6c(c5)C(C)(C)c5cc(-c7ccc8cc(-c9ccc%10ccccc%10c9)ccc8c7)ccc5-6)ccc3-4)cc21 [Example Compound B-18],9400 µg/mL
